Laboratory results reported in patent publication US9938273B2 (Plexxikon Inc., priority 2015, dated 2018).

Key:
[1] = biological target: T1, FLT3-D835Y (Homo sapiens, UniProt P36888, D835Y); assay: AlphaScreen kinase assay with recombinant enzyme, FLT3-D835Y; type: biochemical; settings: 8pt, GMean
T1 construct: purchased Invitrogen PV3967
T1 sequence (P36888 27-993 D835Y): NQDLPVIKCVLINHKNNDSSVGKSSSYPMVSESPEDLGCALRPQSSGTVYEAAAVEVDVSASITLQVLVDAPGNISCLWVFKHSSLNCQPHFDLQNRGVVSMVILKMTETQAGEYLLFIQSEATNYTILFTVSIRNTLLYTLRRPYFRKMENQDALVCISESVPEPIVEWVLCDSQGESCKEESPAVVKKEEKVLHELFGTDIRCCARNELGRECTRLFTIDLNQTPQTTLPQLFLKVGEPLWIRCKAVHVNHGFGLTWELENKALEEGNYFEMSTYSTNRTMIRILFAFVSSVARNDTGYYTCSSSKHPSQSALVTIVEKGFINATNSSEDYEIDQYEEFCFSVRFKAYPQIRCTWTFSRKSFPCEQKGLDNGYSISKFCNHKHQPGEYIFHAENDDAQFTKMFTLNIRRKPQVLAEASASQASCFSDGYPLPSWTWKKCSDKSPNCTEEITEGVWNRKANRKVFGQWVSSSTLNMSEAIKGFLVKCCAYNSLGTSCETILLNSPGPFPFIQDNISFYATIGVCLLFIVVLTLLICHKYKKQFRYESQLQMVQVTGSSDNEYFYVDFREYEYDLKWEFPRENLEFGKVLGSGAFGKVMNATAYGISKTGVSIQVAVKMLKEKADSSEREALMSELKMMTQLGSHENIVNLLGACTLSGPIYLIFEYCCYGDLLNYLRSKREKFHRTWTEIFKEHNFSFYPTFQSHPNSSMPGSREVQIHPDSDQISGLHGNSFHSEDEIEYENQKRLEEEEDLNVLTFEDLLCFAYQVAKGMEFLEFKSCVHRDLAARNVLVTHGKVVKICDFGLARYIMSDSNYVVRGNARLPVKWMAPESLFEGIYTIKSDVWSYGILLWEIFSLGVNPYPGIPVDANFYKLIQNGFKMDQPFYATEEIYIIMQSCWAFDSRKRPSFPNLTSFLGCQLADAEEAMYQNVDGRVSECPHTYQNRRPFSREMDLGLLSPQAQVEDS
In short: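 Tyrosine phosphorylation of biotin-poly(Glu4-Tyr) substrate by recombinant enzyme is detected with PY20 acceptor and streptavidin donor beads after room-temperature incubations of 20 and 60 min. IC50 values were derived at a final 10 μM (FLT3-D835Y, FLT3-ITD) or 100 μM (c-KIT).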

[2] = test system: MOLM-14 F691L cells, FLT3 ITD and FLT3 F691L; assay: Cell proliferation assay (CellTiter-Glo), MOLM-14 F691L; type: cell-based; settings: Homo sapiens, 72 h, 3d-Growth, GMean
In short: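 Three-day growth at 37 °C, 5% CO2 under compound (1 μM top final, 1:3 dilutions, eight points, 0.2% DMSO), read as ATP luminescence by CellTiter-Glo for IC50. Cells: MOLM-14 with FLT3 ITD plus D835Y or F691L, and IL-3-deprived Ba/F3 transfected with FLT3 ITD/D835Y, 1×10^4 per well.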

SMILES | IC50 [1] | IC50 [2]
CC(C)(C#N)NC(=O)c1cccc(-c2cnc3[nH]c(-c4cn[nH]c4)cc3c2)n1 [Compound P-0183, N-(1-cyano-1-methyl-ethyl)-6-[2-(1H-pyrazol-4-yl)-1H-pyrrolo[2,3-b]pyridin-5-yl]pyridine-2-carboxamide] | 0.0001 to 10 µM | 0.0001 to 10 µM
CC(C)(C)NC(=O)c1cccc(-c2cnc3[nH]c(-c4ccccc4)cc3c2)n1 [Compound P-0140, N-tert-butyl-6-(2-phenyl-1H-pyrrolo[2,3-b]pyridin-5-yl)pyridine-2-carboxamide] | 0.0001 to 10 µM | 0.0001 to 10 µM
CC(C)(C#N)NC(=O)c1cccc(-c2cnc3[nH]c(C#Cc4ccccc4)cc3c2)n1 [Compound P-0176, N-(1-cyano-1-methyl-ethyl)-6-[2-(2-phenylethynyl)-1H-pyrrolo[2,3-b]pyridin-5-yl]pyridine-2-carboxamide] | 0.0001 to 10 µM | 0.0001 to 10 µM
Cc1nc(C(C)C)sc1-c1cc2cc(-c3cccc(C(=O)NC(C)(C)C#N)n3)cnc2[nH]1 [Compound P-0169, N-(1-cyano-1-methyl-ethyl)-6-[2-(2-isopropyl-4-methyl-thiazol-5-yl)-1H-pyrrolo[2,3-b]pyridin-5-yl]pyridine-2-carboxamide] | 0.0001 to 10 µM | 0.0001 to 10 µM
CC(C)(C#N)NC(=O)c1cccc(-c2cnc3[nH]c(-c4ccc(C5CC5)nc4)cc3c2)n1 [Compound P-0168, N-(1-cyano-1-methyl-ethyl)-6-[2-(6-cyclopropyl-3-pyridyl)-1H-pyrrolo[2,3-b]pyridin-5-yl]pyridine-2-carboxamide] | 0.0001 to 10 µM | 0.0001 to 10 µM
COCCn1cc(-c2cc3cc(-c4cccc(C(=O)NC(C)(C)C#N)n4)cnc3[nH]2)cn1 [Compound P-0172, N-(1-cyano-1-methyl-ethyl)-6-[2-[1-(2-methoxyethyl)pyrazol-4-yl]-1H-pyrrolo[2,3-b]pyridin-5-yl]pyridine-2-carboxamide] | 0.0001 to 10 µM | 0.0001 to 10 µM

The remaining lines, values ahead:

IC50 [1] | IC50 [2] | SMILES
0.0001 to 10 µM | 0.0001 to 10 µM | CC(C)(C#N)NC(=O)c1cccc(-c2cnc3[nH]c(C4=CCSCC4)cc3c2)n1 [Compound P-0180, N-(1-cyano-1-methyl-ethyl)-6-[2-(3,6-dihydro-2H-thiopyran-4-yl)-1H-pyrrolo[2,3-b]pyridin-5-yl]pyridine-2-carboxamide]
0.0001 to 10 µM | 0.0001 to 10 µM | O=S(=O)(NC1CC1)c1cccc(-c2cnc3[nH]c(-c4ccccc4)cc3c2)n1 [Compound P-0109, N-cyclopropyl-6-(2-phenyl-1H-pyrrolo[2,3-b]pyridin-5-yl)pyridine-2-sulfonamide]
0.0001 to 10 µM | 0.0001 to 10 µM | CC(C)(C#N)NC(=O)c1cccc(-c2cnc3[nH]c(-c4cnc(C5CC5)nc4)cc3c2)n1 [Compound P-0166, N-(1-cyano-1-methyl-ethyl)-6-[2-(2-cyclopropylpyrimidin-5-yl)-1H-pyrrolo[2,3-b]pyridin-5-yl]pyridine-2-carboxamide]
0.0001 to 10 µM | 0.0001 to 10 µM | N#CC1(NC(=O)c2cccc(-c3cnc4[nH]c(-c5ccccc5)cc4c3)n2)CC1 [Compound P-0111, N-(1-cyanocyclopropyl)-6-(2-phenyl-1H-pyrrolo[2.3-b]pyridin-5-yl]pyridine-2-carboxamide]
0.0001 to 10 µM | 0.0001 to 10 µM | O=C(c1cccc(-c2cnc3[nH]c(-c4cnn(CC(F)(F)F)c4)cc3c2)n1)N1CCC(F)(F)C1 [Compound P-0112, (3,3-difluoropyrrolidin-1-yl)-[6-[2-[1-(2,2,2-trifluoroethyl)pyrazol-4-yl]-1H-pyrrolo[2,3-b]pyridin-5-yl]-2-pyridyl]methanone]
0.0001 to 10 µM | 0.0001 to 10 µM | N#CC1(CNC(=O)c2cccc(-c3cnc4[nH]c(-c5ccccc5)cc4c3)n2)CC1 [Compound P-0137, N-[(1-cyanocyclopropyl)methyl]-6-(2-phenyl-1H-pyrrolo[2,3-b]pyridin-5-yl)pyridine-2-carboxamide]
0.0001 to 10 µM | 0.0001 to 10 µM | N#CC1(NC(=O)c2cccc(-c3cnc4[nH]c(-c5ccccc5)cc4c3)n2)CCC1 [Compound P-0114, N-(1-cyanocyclobutyl)-6-(2-phenyl-1H-pyrrolo[2,3-b]pyridin-5-yl)pyridine-2-carboxamide]
0.0001 to 10 µM | 0.0001 to 10 µM | N#CC1CCN(C(=O)c2cccc(-c3cnc4[nH]c(-c5cnn(C(F)F)c5)cc4c3)n2)C1 (stereo not drawn) [Compound P-0134, 1-[6-[2-[1-(difluoromethyl)pyrazol-4-yl]-1H-pyrrolo[2,3-b]pyridin-5-yl]pyridine-2-carbonyl]pyrrolidine-3-carbonitrile]
0.0001 to 10 µM | 0.0001 to 10 µM | CC(C)(C#N)CNC(=O)c1cccc(-c2cnc3[nH]c(C4=CCS(=O)(=O)CC4)cc3c2)n1 [Compound P-0160, N-(2-cyano-2-methyl-propyl)-6-[2-(1,1-dioxo-3,6-dihydro-2H-thiopyran-4-yl)-1H-pyrrolo[2,3-b]pyridin-5-yl]pyridine-2-carboxamide]
